Data on 14 compounds can be found in ChEMBL document CHEMBL1123754, “N6-phenyladenosines: pronounced effect of phenyl substituents on affinity for A2 adenosine receptors” (J Med Chem, 1987).

The target in assay [1] is T1, Adenosine receptor A1 (Gallus gallus, UniProt P49892).
T1 sequence (P49892 whole entry): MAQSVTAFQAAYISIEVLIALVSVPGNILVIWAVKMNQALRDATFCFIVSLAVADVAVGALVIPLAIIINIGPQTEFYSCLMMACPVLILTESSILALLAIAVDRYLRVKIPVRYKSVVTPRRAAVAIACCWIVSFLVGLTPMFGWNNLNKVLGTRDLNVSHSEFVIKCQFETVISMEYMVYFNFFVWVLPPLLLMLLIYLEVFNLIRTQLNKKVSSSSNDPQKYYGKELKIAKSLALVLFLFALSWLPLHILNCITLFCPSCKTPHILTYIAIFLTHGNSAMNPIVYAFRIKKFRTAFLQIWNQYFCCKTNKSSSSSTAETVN
The experiment in a line: Displacement of [125I]ABA from adenosine A1 receptor of chick cerebellar membrane.

A short description of assay [2]: Relative affinities for adenosine A2 and A1 receptors.
Another assay deals with Adenosine A2 receptor (Rattus norvegicus, UniProt P29276+P30543).
The target in assay [3] is T1, Adenosine receptor A1. The experiment in a line: Binding affinity for Adenosine A1 receptor using [125I]-ABA in chick cerebellar membrane. It counts as cell membranes, Cerebellum.

Description for Adenosine A2 receptor: Displacement of [3H]-NECA from adenosine A2 receptor of rat striatal membrane

Regarding `CCc1ccc(Nc2ncnc3c2ncn3C2O[C@H](CO)[C@@H](O)[C@H]2O)cc1` (stereo partly drawn), the IC50 on Adenosine receptor A1 [1] came to 12.8 nM; at Adenosine A2 receptor it was 960 nM. In assay [2], this compound showed a Selectivity of 75.
For the compound `COc1ccc(Nc2ncnc3c2ncn3[C@@H]2O[C@H](CO)[C@@H](O)[C@H]2O)cc1`, the figures for the concentration for half-maximal inhibition (IC50) at Adenosine receptor A1 [1] and at Adenosine A2 receptor were 6.4 nM and 1760 nM, respectively. The Selectivity in assay [2] worked out at 275.
Compound `OC[C@H]1O[C@@H](n2cnc3c(NC4CCCCC4)ncnc32)[C@H](O)[C@@H]1O` registered a concentration for half-maximal inhibition (IC50) at Adenosine receptor A1 [1] of 2.5 nM. That is a single-digit nanomolar value.
For `OC[C@H]1O[C@@H](n2cnc3c(Nc4ccccc4)ncnc32)[C@H](O)[C@@H]1O` [N6-PHENYLADENOSINE], the IC50 is 4.6 nM on Adenosine receptor A1 [1] and 660 nM at Adenosine A2 receptor. The compound further registered a Selectivity in assay [2] of 140.
With `CCc1cccc(Nc2ncnc3c2ncn3C2O[C@H](CO)[C@@H](O)[C@H]2O)c1` (stereo partly drawn), the 50% inhibitory concentration (IC50) at Adenosine receptor A1 [1] amounted to 25.3 nM; against Adenosine A2 receptor it was 10200 nM. Also, in assay [2], the Selectivity was 403.
On to `OC[C@H]1OC(n2cnc3c(Nc4ccc(F)cc4)ncnc32)[C@H](O)[C@@H]1O` (stereo partly drawn), for which the half-maximal inhibitory concentration (IC50) was determined as 13.1 nM on Adenosine receptor A1 [1] and 860 nM against Adenosine A2 receptor. In assay [2], this compound gave a Selectivity of 65.
With `OC[C@H]1OC(n2cnc3c(Nc4cccc(O)c4)ncnc32)[C@H](O)[C@@H]1O` (stereo partly drawn), the results for the IC50 on Adenosine receptor A1 [3] and on Adenosine A2 receptor were 11.1 nM and 7640 nM, respectively. In assay [2], the Selectivity came out at 690.
Turning to `Nc1cccc(Nc2ncnc3c2ncn3C2O[C@H](CO)[C@@H](O)[C@H]2O)c1` (stereo partly drawn), the IC50 was 45.1 nM on Adenosine receptor A1 [1] and 10100 nM on Adenosine A2 receptor. Moreover, the Selectivity in assay [2] was 225.
On the same counts, the results for `OC[C@H]1OC(n2cnc3c(Nc4cccc(B(O)O)c4)ncnc32)[C@H](O)[C@@H]1O` (stereo partly drawn) are 42.1 nM, 9300 nM and 220.
`OC[C@H]1OC(n2cnc3c(Nc4ccc(I)cc4)ncnc32)[C@H](O)[C@@H]1O` (stereo partly drawn): the results for the IC50 at Adenosine receptor A1 [1] and at Adenosine A2 receptor were 8.5 nM and 1280 nM, respectively. In assay [2], the Selectivity is 150.
`Cc1ccc(Nc2ncnc3c2ncn3C2O[C@H](CO)[C@@H](O)[C@H]2O)cc1` (stereo partly drawn): the half-inhibitory concentration (IC50) on Adenosine receptor A1 [1] is 8.5 nM; on Adenosine A2 receptor, 920 nM. In addition, the Selectivity in assay [2] is 110.
As to `CCNC(=O)[C@H]1O[C@@H](n2cnc3c(N)ncnc32)[C@H](O)[C@@H]1O` [NECA], the IC50 on Adenosine receptor A1 [1] amounted to 17 nM.
As to `OC[C@H]1OC(n2cnc3c(Nc4cccc(F)c4)ncnc32)[C@H](O)[C@@H]1O` (stereo partly drawn), the 50% inhibitory concentration (IC50) is 10.3 nM at Adenosine receptor A1 [1] and 1600 nM on Adenosine A2 receptor. The same compound showed a Selectivity in assay [2] of 155.
Turning to `OC[C@H]1OC(n2cnc3c(Nc4cccc(I)c4)ncnc32)[C@H](O)[C@@H]1O` (stereo partly drawn), the IC50 on Adenosine receptor A1 [1] is 19 nM; on Adenosine A2 receptor, 11900 nM. In assay [2], this compound showed a Selectivity of 620.
